Results reported in patent US6440970B1, “Pharmaceutical compositions and methods for use” (Targacept, Inc., priority 2000, dated 2002).
pKi: −log10 of the molar value.

Experiments:
CNS nicotinic receptors = assay: Determination of binding to relevant receptor sites; conditions: inhibition constant calculated from IC50 by the method of Cheng et al.
Experimental: Determination of Binding to Relevant Receptor Sites
Binding of the compounds to relevant receptor sites was determined in accordance with the techniques described in U.S. Pat. No. 5,597,919 to Dull et al. Inhibition constants (Ki values), reported in nM, were calculated from the IC50 values using the method of Cheng et al., Biochem, Pharmacol. 22:3099 (1973).

[1] = target: muscle-type nicotinic acetylcholine receptors (Homo sapiens, UniProt P02708+P07510+P11230+Q07001); assay: Determination of interaction with muscle receptors; format: cell-based; conditions: at a concentration of 100 uM; percentage of maximal activation induced by (S)-(-)-nicotine
Experimental: Determination of Interaction with Muscle Receptors
(§1) The determination of the interaction of the compounds with muscle receptors was carried out in accordance with the techniques described in U.S. Pat. No. 5,597,919 to Dull et al. The maximal activation for individual compounds (Emax) was determined as a percentage of the maximal activation induced by (S)-(−)-nicotine. Reported Emax values represent the amount released relative to (S)-(−)-nicotine on a percentage basis.

[2] = test system: ganglionic-type nicotinic acetylcholine receptors; assay: Determination of interaction with ganglion receptors; format: cell-based; conditions: at a concentration of 100 uM; percentage of maximal activation induced by (S)-(-)-nicotine
Experimental: Determination of Interaction with Ganglion Receptors
as §1, with “ganglionic” for “muscle”

Chain of muscle-type nicotinic acetylcholine receptors (P02708 whole entry): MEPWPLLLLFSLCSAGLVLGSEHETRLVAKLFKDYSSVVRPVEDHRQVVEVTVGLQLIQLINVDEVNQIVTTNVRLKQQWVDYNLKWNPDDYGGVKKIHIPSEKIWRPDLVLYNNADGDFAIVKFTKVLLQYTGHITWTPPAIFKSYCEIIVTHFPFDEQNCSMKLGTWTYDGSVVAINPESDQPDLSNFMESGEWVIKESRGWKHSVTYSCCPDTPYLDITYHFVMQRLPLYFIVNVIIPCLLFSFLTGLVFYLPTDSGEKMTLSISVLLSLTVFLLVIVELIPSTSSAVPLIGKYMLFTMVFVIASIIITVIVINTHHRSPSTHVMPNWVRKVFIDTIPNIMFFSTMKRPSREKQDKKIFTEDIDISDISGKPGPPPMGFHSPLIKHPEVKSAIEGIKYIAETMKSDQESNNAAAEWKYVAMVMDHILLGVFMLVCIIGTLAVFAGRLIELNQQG
Chain of muscle-type nicotinic acetylcholine receptors (P11230 24-501): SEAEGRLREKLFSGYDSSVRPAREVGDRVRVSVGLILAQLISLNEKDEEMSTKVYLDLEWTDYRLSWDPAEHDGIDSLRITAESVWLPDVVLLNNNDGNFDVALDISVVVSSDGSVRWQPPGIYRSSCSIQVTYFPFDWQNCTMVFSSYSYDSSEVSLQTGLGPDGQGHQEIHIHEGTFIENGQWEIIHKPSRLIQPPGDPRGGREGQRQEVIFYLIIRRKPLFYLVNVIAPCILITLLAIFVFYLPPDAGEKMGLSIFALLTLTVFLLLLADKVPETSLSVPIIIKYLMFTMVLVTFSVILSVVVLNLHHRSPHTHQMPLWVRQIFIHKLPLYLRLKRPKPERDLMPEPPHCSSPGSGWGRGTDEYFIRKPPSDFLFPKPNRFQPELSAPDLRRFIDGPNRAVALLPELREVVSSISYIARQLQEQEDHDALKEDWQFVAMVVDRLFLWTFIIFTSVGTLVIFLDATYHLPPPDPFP
Chain of muscle-type nicotinic acetylcholine receptors (P07510 23-517): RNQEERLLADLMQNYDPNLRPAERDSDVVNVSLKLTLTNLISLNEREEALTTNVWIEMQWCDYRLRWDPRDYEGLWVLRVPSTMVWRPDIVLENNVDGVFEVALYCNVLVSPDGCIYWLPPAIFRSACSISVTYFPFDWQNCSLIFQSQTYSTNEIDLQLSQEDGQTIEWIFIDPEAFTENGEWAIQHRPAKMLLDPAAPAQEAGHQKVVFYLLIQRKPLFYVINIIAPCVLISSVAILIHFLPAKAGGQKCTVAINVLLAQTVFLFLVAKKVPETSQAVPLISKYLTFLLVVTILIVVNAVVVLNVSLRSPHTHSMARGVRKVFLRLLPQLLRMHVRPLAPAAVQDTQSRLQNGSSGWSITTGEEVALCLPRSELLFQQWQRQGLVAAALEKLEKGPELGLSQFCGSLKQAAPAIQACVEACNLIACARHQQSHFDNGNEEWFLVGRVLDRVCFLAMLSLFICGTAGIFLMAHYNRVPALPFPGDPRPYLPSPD
Chain of muscle-type nicotinic acetylcholine receptors (Q07001 22-517): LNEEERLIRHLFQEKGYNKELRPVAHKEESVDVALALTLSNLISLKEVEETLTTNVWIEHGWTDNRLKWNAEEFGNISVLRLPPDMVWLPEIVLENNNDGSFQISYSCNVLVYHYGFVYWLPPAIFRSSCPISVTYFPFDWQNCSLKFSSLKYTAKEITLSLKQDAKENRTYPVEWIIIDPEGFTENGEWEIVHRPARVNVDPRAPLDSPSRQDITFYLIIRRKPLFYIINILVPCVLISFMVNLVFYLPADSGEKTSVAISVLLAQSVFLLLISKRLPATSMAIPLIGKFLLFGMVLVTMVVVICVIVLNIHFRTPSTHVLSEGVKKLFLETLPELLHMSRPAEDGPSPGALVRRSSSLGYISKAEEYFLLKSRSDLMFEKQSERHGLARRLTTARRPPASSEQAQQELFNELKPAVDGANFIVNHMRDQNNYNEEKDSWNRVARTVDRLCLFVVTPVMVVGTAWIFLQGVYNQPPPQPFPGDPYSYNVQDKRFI

Compound	pKi (CNS nicotinic receptors)	Emax at muscle-type receptors [1] [%]	Emax at ganglionic-type receptors [2] [%]
Brc1cncc(N2C[C@@H]3C[C@H]2CN3)c1 [Sample No. 1, (1S,4S)-(5-bromo-3-pyridyl)-2,5-diazabicyclo[2.2.1]heptane]	7.25	0	5
(1S,4S)-(5-(4-methoxyphenoxy)-3-pyridyl)-2,5-diazabicyclo[2.2.1]heptane hemigalactarate [Sample No. 2]	–	12	11
(1S,4S)-(6-chloro-3-pyridazinyl)-2,5-diazabicyclo[2.2.1]heptane hemigalactarate [Sample No. 4]	–	0	28
(1S,4S)-(5-pyrimidinyl)-2,5-diazabicyclo[2.2.1]heptane hemigalactarate [Sample No. 3]	–	100	11
